Results published in US10363257B2 (ZENITH EPIGENETICS LTD., priority 2013, dated 2019).

Key:
[1] = target: T1, Brd4 bromodomain 1 (BRD4(1)) (Homo sapiens, UniProt O60885); assay: Inhibition of tetra-acetylated histone H4 binding to Brd4 bromodomain 1 (TR-FRET); conditions: tetra-acetylated histone H4 peptide, first bromodomain of Brd4
T1 construct: made in house; host or cells: E. coli BL21(DE3)
Experimental: Proteins were cloned and overexpressed with a N-terminal 6× His tag, then purified by nickel affinity followed by size exclusion chromatography. Briefly, E.coli BL21(DE3) cells were transformed with a recombinant expression vector encoding N-terminally Nickel affinity tagged bromodomains from Brd2, Brd3, Brd4. Cell cultures were incubated at 37° C. with shaking to the appropriate density and induced overnight with IPTG. The supernatant of lysed cells was loaded onto Ni-IDA column for purification. Eluted protein was pooled, concentrated and further purified by size exclusion chromatography. Fractions representing monomeric protein were pooled, concentrated, aliquoted, and frozen at −80° C. for use in subsequent experiments.
Binding of tetra-acetylated histone H4 and BET bromodomains was confirmed by a Time Resolved Fluorescence Resonance Energy Transfer (TR-FRET) method. N-terminally His-tagged bromodomains (200 nM) and biotinylated tetra-acetylated histone H4 peptide (25-50 nM, Millipore) were incubated in the presence of Europium Cryptate-labeled streptavidin (Cisbio Cat. #610SAKLB) and XL665-labeled monoclonal anti-His antibody (Cisbio Cat. #61HISXLB) in a white 96 well microtiter plate (Greiner). For inhibition assays, serially diluted test compound was added to these reactions in a 0.2% final concentration of DMSO. Final buffer concentrations were 30 mM HEPES pH 7.4, 30 mM NaCl, 0.3 mM CHAPS, 20 mM phosphate pH 7.0, 320 mM KF, 0.08% BSA). After a 2-h incubation at room temperature, the fluorescence by FRET was measured at 665 and 620 nm by a SynergyH4 plate reader (Biotek). The binding inhibitory activity was shown by a decrease in 665 nm fluorescence relative to 620 nm. IC50 values were determined from a dose response curve.

[2] = test system: c-myc; assay: Inhibition of c-myc expression (mRNA, real-time PCR) in MV4-11 cells; assay type: cell-based; conditions: Human AML MV4-11 cells, 3 h, cMYC mRNA
Experimental: MV4-11 cells (CRL-9591) were plated at a density of 2.5×10^4 cells per well in 96 well U-bottom plates and treated with increasing concentrations of test compound or DMSO (0.1%) in IMDM media containing 10% FBS and penicillin/streptomycin, and incubated for 3 h at 37° C. Triplicate wells were used for each concentration. Cells were pelleted by centrifugation and harvested using the mRNA Catcher PLUS kit according to manufacturer's instructions. The eluted mRNA isolated was then used in a one-step quantitative real-time PCR reaction, using components of the RNA UltraSense™ One-Step Kit (Life Technologies) together with Applied Biosystems TaqMan® primer-probes for cMYC and Cyclophilin. Real-time PCR plates were run on a VIaTM7 real time PCR machine (Applied Biosystems), data was analyzed, normalizing the Ct values for cMYC to an internal control, prior to determining the fold expression of each sample, relative to the control.

[3] = test system: human AML MV-4-11 cells; assay: Inhibition of cell proliferation in MV4-11 cells (CellTiter Aqueous One); assay type: cell-based; conditions: for IC50: MV4-11, 72 h; for Cell Proliferation activity: 72 h
Experimental: MV4-11 cells: 96-well plates were seeded with 5×10^4 cells per well of exponentially growing human AML MV-4-11 (CRL-9591) cells and immediately treated with two-fold dilutions of test compounds, ranging from 30 μM to 0.2 μM. Triplicate wells were used for each concentration, as well as a media only and three DMSO control wells. The cells and compounds were incubated at 37° C., 5% CO2 for 72 h before adding 20 μL of the CellTiter Aqueous One Solution (Promega) to each well and incubating at 37° C., 5% CO2 for an additional 3-4 h. The absorbance was taken at 490 nm in a spectrophotometer and the percentage of proliferation relative to DMSO-treated cells was calculated after correction from the blank well. IC50 were calculated using the GraphPad Prism software.

| IC50 [1] [nM] | IC50 [2] [nM] | IC50 [3] [nM] | Structure (SMILES) | Cell Proliferation activity [3] |
| --- | --- | --- | --- | --- |
| ≤ 300 | 3000 to 30000 | 3000 to 30000 | Cc1noc(C)c1-c1cc([N+](=O)[O-])c2[nH]c(=O)n(CC3CC3)c2c1 [compound 145, 1-(cyclopropylmethyl)-6-(3,5-dimethylisoxazol-4-yl)-4-nitro-1H-benzo[d]imidazol-2(3H)-one] |  |
| 300 to 3000 | 300 to 3000 | 300 to 3000 | Cc1noc(C)c1-c1cnc2[nH]c(=O)n([C@@H](C)c3ccccc3)c2c1 [compound 219, (S)-6-(3,5-dimethylisoxazol-4-yl)-1-(1-phenylethyl)-1H-imidazo[4,5-b]pyridin-2(3H)-one] |  |
| ≤ 300 | 300 to 3000 | 300 to 3000 | Cc1noc(C)c1-c1cnc2nc(C)n(CC3CCCC3)c2c1 [compound 192, 4-(1-(cyclopentylmethyl)-2-methyl-1H-imidazo[4,5-b]pyridin-6-yl)-3,5-dimethylisoxazole] |  |
| ≤ 300 | ≤ 300 | ≤ 300 | COCCNc1nc2c(N)cc(-c3c(C)noc3C)cc2n1Cc1ccccc1 [compound 139, 1-benzyl-6-(3,5-dimethylisoxazol-4-yl)-N2-(2-methoxyethyl)-1H-benzo[d]imidazole-2,4-diamine] |  |
| ≤ 300 | ≤ 300 | 300 to 3000 | Cc1noc(C)c1-c1cc(O)c2nc(C)n(Cc3ccccc3)c2c1 [compound 173, 1-benzyl-6-(3,5-dimethylisoxazol-4-yl)-2-methyl-1H-benzo[d]imidazol-4-ol] |  |
| ≤ 300 | 300 to 3000 | 300 to 3000 | Cc1noc(C)c1-c1cc(S(C)(=O)=O)c2nc(C)n(Cc3ccccc3)c2c1 [compound 168, 4-(1-benzyl-2-methyl-4-(methylsulfonyl)-1H-benzo[d]imidazol-6-yl)-3,5-dimethylisoxazole] |  |
| ≤ 300 | 300 to 3000 | 300 to 3000 | Cc1noc(C)c1-c1cnc2nc(N3CCNCC3)n(Cc3ccccc3)c2c1 [compound 213, 4-(1-benzyl-2-(piperazin-1-yl)-1H-imidazo[4,5-b]pyridin-6-yl)-3,5-dimethylisoxazole] |  |
| ≤ 300 | 300 to 3000 | 300 to 3000 | Cc1noc(C)c1-c1cc(N2CCOCC2)c2nc(C)n(Cc3ccccc3)c2c1 [compound 182, 4-(1-benzyl-6-(3,5-dimethylisoxazol-4-yl)-2-methyl-1H-benzo[d]imidazol-4-yl)morpholine] |  |
| ≤ 300 | 300 to 3000 | 300 to 3000 | Cc1noc(C)c1-c1cnc2nc(N3CCN(C)CC3)n(Cc3ccccc3)c2c1 [compound 165, 4-(1-benzyl-2-(4-methylpiperazin-1-yl)-1H-imidazo[4,5-b]pyridin-6-yl)-3,5-dimethylisoxazole] |  |
| ≤ 300 | 300 to 3000 | 300 to 3000 | COc1ccc(Cn2c(=O)[nH]c3c(N)cc(-c4c(C)noc4C)cc32)cc1 [compound 104, 4-amino-6-(3,5-dimethylisoxazol-4-yl)-1-(4-methoxybenzyl)-1H-benzo[d]imidazol-2(3H)-one] |  |
| ≤ 300 | 300 to 3000 | 300 to 3000 | COc1ccc(CNc2nc3ncc(-c4c(C)noc4C)cc3n2Cc2ccccc2)cc1 [compound 205, 1-benzyl-6-(3,5-dimethylisoxazol-4-yl)-N-(4-methoxybenzyl)-1H-imidazo[4,5-b]pyridin-2-amine] |  |
| ≤ 300 | ≤ 300 | ≤ 300 | Cc1noc(C)c1-c1cc(N)c2[nH]c(=O)n([C@H](C)c3ccccc3)c2c1 [compound 179, (R)-4-amino-6-(3,5-dimethylisoxazol-4-yl)-1-(1-phenylethyl)-1H-benzo[d]imidazol-2(3H)-one] |  |
| ≤ 300 | ≤ 300 | 300 to 3000 | Cc1noc(C)c1-c1cc(N)c2[nH]c(=O)n([C@@H](C)c3ccccc3)c2c1 [compound 178, (S)-4-amino-6-(3,5-dimethylisoxazol-4-yl)-1-(1-phenylethyl)-1H-benzo[d]imidazol-2(3H)-one] |  |
| ≤ 300 | ≤ 300 | ≤ 300 | Cc1noc(C)c1-c1cnc2nc(NC3CCOCC3)n(CC3CCCC3)c2c1 [compound 222, 1-(cyclopentylmethyl)-6-(3,5-dimethylisoxazol-4-yl)-N-(tetrahydro-2H-pyran-4-yl)-1H-imidazo[4,5-b]pyridin-2-amine] |  |
| ≤ 300 | ≤ 300 | 300 to 3000 | Cc1noc(C)c1-c1cc([N+](=O)[O-])c2[nH]c(=O)n([C@@H](C)c3ccccc3)c2c1 [compound 172, (S)-6-(3,5-dimethylisoxazol-4-yl)-4-nitro-1-(1-phenylethyl)-1H-benzo[d]imidazol-2(3H)-one] |  |
| ≤ 300 | 3000 to 30000 | 3000 to 30000 | Cn1nccc1-c1cc([N+](=O)[O-])c2c(c1)n(Cc1ccccc1)c(=O)n2C [compound 198, 1-benzyl-3-methyl-6-(1-methyl-1H-pyrazol-5-yl)-4-nitro-1H-benzo[d]imidazol-2(3H)-one] |  |
| 300 to 3000 | 300 to 3000 | 300 to 3000 | Cn1nccc1-c1cnc2[nH]c(=O)n(Cc3ccccc3)c2c1 [compound 171, 1-benzyl-6-(1-methyl-1H-pyrazol-5-yl)-1H-imidazo[4,5-b]pyridin-2(3H)-one] |  |
| 300 to 3000 |  |  | CC(=O)Oc1nc2ncn(Cc3ccc(F)cc3)c2cc1-c1c(C)noc1C [compound 80, 6-(3,5-dimethylisoxazol-4-yl)-1-(4-fluorobenzyl)-1H-imidazo[4,5-b]pyridin-5-yl acetate] | Not active |
| 3000 to 30000 |  |  | Cc1noc(C)c1-c1cc2c([nH]c1=O)c(C)nn2Cc1ccc(F)cc1 [Example Compound 25, 6-(3,5-dimethylisoxazol-4-yl)-1-(4-fluorobenzyl)-3-methyl-1H-pyrazolo[4,3-b]pyridin-5(4H)-one] | Not active |
| ≤ 300 |  |  | COC(=O)c1cc(-c2c(C)noc2C)cc2c1[nH]c(=O)n2Cc1ccccc1 [Example Compound 20, methyl 1-benzyl-6-(3,5-dimethylisoxazol-4-yl)-2-oxo-2,3-dihydro-1H-benzo[d]imidazole-4-carboxylate] | Not active |
| 3000 to 30000 |  |  | Cc1noc(C)c1-c1cnc2ncn(Cc3ccccn3)c2c1 [Example Compound 47, 3,5-dimethyl-4-(1-(pyridin-2-ylmethyl)-1H-imidazo[4,5-b]pyridin-6-yl)isoxazole] | Not active |
| 300 to 3000 |  |  | CCOc1nc2ncc(-c3c(C)noc3C)cc2n1Cc1ccccc1 [Example Compound 59, 4-(1-benzyl-2-ethoxy-1H-imidazo[4,5-b]pyridin-6-yl)-3,5-dimethylisoxazole] | Not active |
| ≤ 300 |  | 300 to 3000 | CCNc1nc2ncc(-c3c(C)noc3C)cc2n1Cc1ccccc1 [compound 107, 1-benzyl-6-(3,5-dimethylisoxazol-4-yl)-N-ethyl-1H-imidazo[4,5-b]pyridin-2-amine] |  |
| 300 to 3000 |  |  | Cc1noc(C)c1-c1cc(Br)c2nc(C)n(C(=O)c3ccccc3)c2c1 [compound 200, (4-bromo-6-(3,5-dimethylisoxazol-4-yl)-2-methyl-1H-benzo[d]imidazol-1-yl)(phenyl)methanone] | Not active |
